Test results taken from the NIST ThermoML archive (doi:10.1016/j.jct.2007.05.004).

Experiment: xn = mol fraction of the nth substance listed
Details: 101 kPa, Liquid

CCO [ethanol] + CCOC(C)=O
x1 = 1
Details | mass density [kg/m3] | viscosity [mPa·s]
293.15 K | 789.75 | 1.187
298.15 K | 785.46 | 1.082
303.15 K | 781.15 | 0.987

CCO [ethanol] + COC(C)=O
x1 = 1
Details | mass density [kg/m3] | viscosity [mPa·s]
293.15 K | 789.75 | 1.187
298.15 K | 785.46 | 1.082
303.15 K | 781.15 | 0.987

CCO [ethanol] + O
Details | mass density, 293.15 K [kg/m3] | mass density, 298.15 K [kg/m3] | mass density, 303.15 K [kg/m3] | viscosity, 293.15 K [mPa·s] | viscosity, 298.15 K [mPa·s] | viscosity, 303.15 K [mPa·s]
x2 = 0 | 789.75 | 785.46 | 781.15 | 1.187 | 1.082 | 0.987
x2 = 0.0501 | 795.99 | 791.68 | 787.35 | 1.277 | 1.153 | 1.046
x2 = 0.0986 | 802.09 | 797.77 | 793.41 | 1.371 | 1.232 | 1.111
x2 = 0.1961 | 814.88 | 810.54 | 806.14 | 1.549 | 1.38 | 1.237
x2 = 0.2961 | 829.05 | 824.7 | 820.29 | 1.735 | 1.531 | 1.357
x2 = 0.3991 | 845.25 | 840.94 | 836.55 | 1.975 | 1.659 | 1.515
x2 = 0.4971 | 862.82 | – | – | 2.225 | – | –
x2 = 0.5989 | 884.07 | 879.89 | 875.63 | 2.479 | 2.115 | 1.821
x2 = 0.6991 | 908.69 | 904.65 | 900.55 | 2.705 | 2.275 | 1.941
x2 = 0.8001 | 937.33 | 933.65 | 929.9 | 2.7 | 2.3 | 1.937
x2 = 0.8996 | 965.71 | 963.24 | 960.61 | 2.223 | 1.86 | 1.58
x2 = 0.9499 | 979.28 | 977.72 | 975.93 | 1.63 | 1.388 | 1.207

CCOC(C)=O [ethyl acetate] + CCO
Details | mass density, 293.15 K [kg/m3] | mass density, 298.15 K [kg/m3] | mass density, 303.15 K [kg/m3] | viscosity, 293.15 K [mPa·s] | viscosity, 298.15 K [mPa·s] | viscosity, 303.15 K [mPa·s]
x2 = 0 | 900.52 | 894.43 | 888.3 | 0.452 | 0.426 | 0.403
x2 = 0.0491 | 896.91 | 890.86 | 884.76 | 0.45 | 0.425 | 0.402
x2 = 0.099 | 893.14 | 887.11 | 881.03 | 0.452 | 0.429 | 0.406
x2 = 0.1958 | 885.48 | 879.55 | 873.57 | 0.463 | 0.435 | 0.412
x2 = 0.2961 | 877.07 | 871.22 | 865.34 | 0.476 | 0.448 | 0.426
x2 = 0.3947 | 868.09 | 862.38 | 856.63 | 0.497 | 0.467 | 0.439
x2 = 0.4948 | 858.16 | 852.62 | 847.03 | 0.542 | 0.502 | 0.467
x2 = 0.5995 | 846.81 | 841.47 | 836.07 | 0.581 | 0.543 | 0.508
x2 = 0.7004 | 834.71 | 829.57 | 824.39 | 0.66 | 0.614 | 0.575
x2 = 0.8004 | 821.45 | 816.55 | 811.61 | 0.758 | 0.701 | 0.65
x2 = 0.9003 | 806.45 | 801.82 | 797.15 | 0.919 | 0.843 | 0.777
x2 = 0.9505 | 798.36 | 793.91 | 789.42 | 1.048 | 0.958 | 0.869

CCOC(C)=O [ethyl acetate] + CO
Details | mass density, 293.15 K [kg/m3] | mass density, 298.15 K [kg/m3] | mass density, 303.15 K [kg/m3] | viscosity, 293.15 K [mPa·s] | viscosity, 298.15 K [mPa·s] | viscosity, 303.15 K [mPa·s]
x2 = 0 | 900.52 | 894.43 | 888.3 | 0.452 | 0.426 | 0.403
x2 = 0.0474 | 898.51 | 892.43 | 886.3 | 0.447 | 0.422 | 0.4
x2 = 0.097 | 896.18 | 890.12 | 884.01 | 0.443 | 0.418 | 0.396
x2 = 0.1956 | 891.18 | 885.16 | 879.09 | 0.442 | 0.417 | 0.396
x2 = 0.2999 | 884.93 | 878.99 | 872.98 | 0.442 | 0.419 | 0.398
x2 = 0.3963 | 878.26 | 872.38 | 866.46 | 0.447 | 0.421 | 0.398
x2 = 0.4962 | 870.14 | 864.36 | 858.55 | 0.453 | 0.427 | 0.403
x2 = 0.5963 | 860.45 | 854.82 | 849.15 | 0.463 | 0.435 | 0.41
x2 = 0.6998 | 848.26 | 842.81 | 837.3 | 0.481 | 0.451 | 0.425
x2 = 0.7992 | 833.88 | 828.62 | 823.31 | 0.504 | 0.472 | 0.443
x2 = 0.9005 | 815.52 | 810.5 | 805.45 | 0.536 | 0.501 | 0.469

CO [methanol] + CCOC(C)=O
x1 = 1
Details | mass density [kg/m3] | viscosity [mPa·s]
293.15 K | 791.9 | 0.585
298.15 K | 787.2 | 0.545
303.15 K | 782.48 | 0.508

CO [methanol] + COC(C)=O
x1 = 1
Details | mass density [kg/m3] | viscosity [mPa·s]
293.15 K | 791.9 | 0.585
298.15 K | 787.2 | 0.545
303.15 K | 782.48 | 0.508

CO [methanol] + O
Details | mass density, 293.15 K [kg/m3] | mass density, 298.15 K [kg/m3] | mass density, 303.15 K [kg/m3] | viscosity, 293.15 K [mPa·s] | viscosity, 298.15 K [mPa·s] | viscosity, 303.15 K [mPa·s]
x2 = 0 | 791.9 | 787.2 | 782.48 | 0.585 | 0.545 | 0.508
x2 = 0.049 | 800.06 | 795.47 | 790.84 | 0.655 | 0.607 | 0.563
x2 = 0.0993 | 808.62 | 804.11 | 799.56 | 0.735 | 0.677 | 0.627
x2 = 0.1973 | 826.11 | 821.73 | 817.31 | 0.9 | 0.821 | 0.751
x2 = 0.2983 | 845.03 | 840.79 | 836.5 | 1.086 | 0.987 | 0.889
x2 = 0.3985 | 864.67 | 860.59 | 856.45 | 1.287 | 1.15 | 1.032
x2 = 0.5003 | 885.57 | 881.69 | 877.32 | 1.481 | 1.309 | 1.164
x2 = 0.5994 | 906.58 | 902.96 | 899.26 | 1.673 | 1.463 | 1.289
x2 = 0.6997 | 928.45 | 925.21 | 921.89 | 1.793 | 1.554 | 1.342
x2 = 0.7986 | 949.8 | 947.17 | 944.42 | 1.789 | 1.542 | 1.342
x2 = 0.8999 | 971.59 | 969.84 | 967.9 | 1.522 | 1.317 | 1.147
x2 = 0.9512 | 983.86 | 982.53 | 980.97 | 1.274 | 1.121 | 0.996
